Measured values published in ChEMBL document CHEMBL5465560, “Selectivity Literature for EUbOPEN Chemogenomic Library” (2024).

Assays:
[1] = biological target: T1, MAP/microtubule affinity-regulating kinase 4 (Homo sapiens) (UniProt Q96L34); test: Selectivity interaction (Kinase panel (KiNativ target engagement assay in Jurkat cells)) EUB0001635a MARK4; assay type: cell-based; details: Selectivity number of off-targets 0.0, Selectivity number of targets 233.0, Source Knowledge https://www.sciencedirect.com/science/article/pii/S2451945619300674?via%3Dihub, at 1 µM
T1 sequence (whole entry): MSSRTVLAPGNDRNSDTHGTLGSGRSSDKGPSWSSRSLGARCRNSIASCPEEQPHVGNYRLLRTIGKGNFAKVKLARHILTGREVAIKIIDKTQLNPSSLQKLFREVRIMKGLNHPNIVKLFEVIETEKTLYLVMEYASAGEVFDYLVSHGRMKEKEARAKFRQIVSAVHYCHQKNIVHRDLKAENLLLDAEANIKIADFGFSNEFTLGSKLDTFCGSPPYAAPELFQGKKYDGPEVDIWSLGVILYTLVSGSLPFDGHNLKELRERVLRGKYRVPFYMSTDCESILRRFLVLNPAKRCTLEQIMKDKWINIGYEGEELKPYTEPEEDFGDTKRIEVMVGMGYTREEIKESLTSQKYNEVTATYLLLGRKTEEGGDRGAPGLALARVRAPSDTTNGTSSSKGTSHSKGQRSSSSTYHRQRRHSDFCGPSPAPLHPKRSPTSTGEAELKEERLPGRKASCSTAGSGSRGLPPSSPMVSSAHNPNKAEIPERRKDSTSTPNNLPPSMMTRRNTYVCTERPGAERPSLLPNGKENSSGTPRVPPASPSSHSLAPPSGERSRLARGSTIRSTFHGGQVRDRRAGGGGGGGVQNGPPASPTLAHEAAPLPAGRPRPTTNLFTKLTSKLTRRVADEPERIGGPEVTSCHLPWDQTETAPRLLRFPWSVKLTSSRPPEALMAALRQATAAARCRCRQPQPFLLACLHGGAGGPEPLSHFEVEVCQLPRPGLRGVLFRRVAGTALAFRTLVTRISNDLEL

[2] = biological target: Mitogen-activated protein kinase kinase kinase 20 (Homo sapiens) (UniProt Q9NYL2); test: Selectivity interaction (KinomeScan (DiscoverX)) EUB0000045b MAP3K20
Sequence of Mitogen-activated protein kinase kinase kinase 20 (Homo sapiens) (Q9NYL2 2-800 limits assumed): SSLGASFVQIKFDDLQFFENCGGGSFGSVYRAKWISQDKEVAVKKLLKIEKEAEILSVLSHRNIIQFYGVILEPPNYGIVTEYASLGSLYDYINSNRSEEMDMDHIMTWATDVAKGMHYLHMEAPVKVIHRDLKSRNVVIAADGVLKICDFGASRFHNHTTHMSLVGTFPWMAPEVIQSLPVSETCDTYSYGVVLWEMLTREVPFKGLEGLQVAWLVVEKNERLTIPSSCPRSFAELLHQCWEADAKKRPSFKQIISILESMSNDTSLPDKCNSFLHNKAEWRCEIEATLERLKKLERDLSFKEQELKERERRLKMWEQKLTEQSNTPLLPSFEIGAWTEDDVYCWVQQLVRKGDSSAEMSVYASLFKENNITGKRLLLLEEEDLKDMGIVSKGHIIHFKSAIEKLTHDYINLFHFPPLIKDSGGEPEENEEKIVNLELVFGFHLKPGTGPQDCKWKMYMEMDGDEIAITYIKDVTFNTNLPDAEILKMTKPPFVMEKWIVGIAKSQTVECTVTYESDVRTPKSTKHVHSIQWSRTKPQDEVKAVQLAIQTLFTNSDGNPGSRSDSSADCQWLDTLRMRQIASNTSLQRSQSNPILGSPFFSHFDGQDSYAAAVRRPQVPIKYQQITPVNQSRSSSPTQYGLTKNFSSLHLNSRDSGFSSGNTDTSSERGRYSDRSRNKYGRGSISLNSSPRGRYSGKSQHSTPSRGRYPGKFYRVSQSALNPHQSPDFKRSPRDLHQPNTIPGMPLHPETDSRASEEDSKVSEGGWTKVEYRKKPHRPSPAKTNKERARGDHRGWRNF

[3] = biological target: T2, Mitogen-activated protein kinase kinase kinase 15 (Homo sapiens) (UniProt Q6ZN16); test: Selectivity interaction (KinomeScan (DiscoverX)) EUB0001049a MAP3K15; details: at 1 µM
T2 sequence (whole entry): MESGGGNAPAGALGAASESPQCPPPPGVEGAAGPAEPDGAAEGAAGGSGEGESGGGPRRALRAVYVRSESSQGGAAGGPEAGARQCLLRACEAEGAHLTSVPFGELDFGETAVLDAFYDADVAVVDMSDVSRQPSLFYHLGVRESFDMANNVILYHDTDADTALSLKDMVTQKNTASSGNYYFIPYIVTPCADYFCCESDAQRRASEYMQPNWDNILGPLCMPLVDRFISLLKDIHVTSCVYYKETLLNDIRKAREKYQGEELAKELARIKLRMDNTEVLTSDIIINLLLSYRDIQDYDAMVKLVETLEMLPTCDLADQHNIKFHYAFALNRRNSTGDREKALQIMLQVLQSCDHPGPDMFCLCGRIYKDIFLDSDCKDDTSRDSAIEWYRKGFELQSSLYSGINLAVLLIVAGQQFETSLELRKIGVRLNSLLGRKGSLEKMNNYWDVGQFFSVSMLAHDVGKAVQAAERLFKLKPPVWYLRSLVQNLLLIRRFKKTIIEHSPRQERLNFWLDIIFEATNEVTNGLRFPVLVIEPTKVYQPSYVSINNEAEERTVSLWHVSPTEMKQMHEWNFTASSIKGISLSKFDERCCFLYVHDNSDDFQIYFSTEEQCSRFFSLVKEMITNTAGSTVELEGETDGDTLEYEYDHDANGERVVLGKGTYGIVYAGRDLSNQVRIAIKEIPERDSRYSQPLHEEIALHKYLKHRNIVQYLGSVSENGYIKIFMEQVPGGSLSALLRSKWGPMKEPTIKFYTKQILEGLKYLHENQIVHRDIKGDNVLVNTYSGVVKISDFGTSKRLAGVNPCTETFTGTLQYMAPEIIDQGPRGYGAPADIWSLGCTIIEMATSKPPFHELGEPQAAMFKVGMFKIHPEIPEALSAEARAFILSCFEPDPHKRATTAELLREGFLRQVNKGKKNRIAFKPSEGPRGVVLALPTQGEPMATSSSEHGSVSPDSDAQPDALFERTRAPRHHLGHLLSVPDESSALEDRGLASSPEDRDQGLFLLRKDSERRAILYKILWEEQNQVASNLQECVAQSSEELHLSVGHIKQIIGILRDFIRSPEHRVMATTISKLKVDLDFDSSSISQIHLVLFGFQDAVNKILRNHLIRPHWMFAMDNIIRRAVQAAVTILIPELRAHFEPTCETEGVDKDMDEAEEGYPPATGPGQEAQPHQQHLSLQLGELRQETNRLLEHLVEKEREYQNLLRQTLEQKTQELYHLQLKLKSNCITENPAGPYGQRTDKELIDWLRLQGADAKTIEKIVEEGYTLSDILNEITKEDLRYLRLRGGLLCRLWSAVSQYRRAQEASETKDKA

[4] = biological target: T3, Inhibitor of nuclear factor kappa-B kinase subunit alpha (Homo sapiens) (UniProt O15111); test: Selectivity interaction (KinomeScan (DiscoverX)) EUB0000092b CHUK; details: at 10 µM
T3 sequence (whole entry): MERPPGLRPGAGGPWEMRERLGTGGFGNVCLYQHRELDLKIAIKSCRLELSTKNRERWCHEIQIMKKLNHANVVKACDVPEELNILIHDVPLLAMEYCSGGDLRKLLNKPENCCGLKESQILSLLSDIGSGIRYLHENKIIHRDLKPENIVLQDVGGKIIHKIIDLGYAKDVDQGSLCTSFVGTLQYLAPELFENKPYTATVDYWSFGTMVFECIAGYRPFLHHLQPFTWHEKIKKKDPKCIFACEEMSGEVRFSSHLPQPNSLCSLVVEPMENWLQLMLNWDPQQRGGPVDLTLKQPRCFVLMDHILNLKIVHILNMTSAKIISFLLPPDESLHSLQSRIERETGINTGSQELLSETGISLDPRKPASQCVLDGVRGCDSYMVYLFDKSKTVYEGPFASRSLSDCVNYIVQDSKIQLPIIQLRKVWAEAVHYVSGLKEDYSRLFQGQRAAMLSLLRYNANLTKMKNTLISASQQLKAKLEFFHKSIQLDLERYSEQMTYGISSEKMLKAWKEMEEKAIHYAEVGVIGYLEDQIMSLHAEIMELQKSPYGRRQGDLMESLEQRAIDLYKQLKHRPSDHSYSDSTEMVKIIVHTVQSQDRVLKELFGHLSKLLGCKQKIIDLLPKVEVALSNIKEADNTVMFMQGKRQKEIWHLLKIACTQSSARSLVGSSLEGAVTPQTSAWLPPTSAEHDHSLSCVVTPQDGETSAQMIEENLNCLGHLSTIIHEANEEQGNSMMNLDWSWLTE

`C=CC(=O)Nc1ccc(C(=O)Nc2[nH]nc3c2CN(C(=O)N[C@H](CN(C)C)c2ccccc2)C3(C)C)cc1` was tested, and the % of engagement [1] was 37%.

`C=CC(=O)Nc1cc(-n2c(=O)ccc3cnc4ccc(-c5ccc(NS(C)(=O)=O)cc5)cc4c32)ccc1C` was tested, and the % of control ([2]; at 1 µM) was 64% and the % of control ([2]; at 10 µM) was 12%.

`COc1cc(Nc2nc(C)cc(-c3cnn4nc(OC)ccc34)n2)cc(C(F)(F)F)c1` showed a % of control [3] of 100%.

`CCC(=O)N1CCN(c2ccc(-n3c(=O)ccc4cnc5ccc(-c6cnc7ccccc7c6)cc5c43)cc2C(F)(F)F)CC1` was tested, and the % of control [4] was 41%.
